{
  "source": "patent US5840758A",
  "about": "“Oxime derivatives of fenamates as inhibitors of prostaglandin biosynthesis” (Abbott Laboratories, priority 1996, dated 1998)",
  "key": {"PGHS-2": {"test_system": "PGHS-2", "settings": "in words, from literature; cited from earlier work"}, "PGHS-1": {"test_system": "PGHS-1", "settings": "in words, from literature; cited from earlier work"}, "human recombinant PGHS-1": {"molecular_target": "T1, human recombinant PGHS-1 (Homo sapiens, UniProt P23219)", "T1 construct": "made in house; host or cells: baculovirus/Sf9 insect cells (microsomes)", "T1 sequence (P23219 24-599)": "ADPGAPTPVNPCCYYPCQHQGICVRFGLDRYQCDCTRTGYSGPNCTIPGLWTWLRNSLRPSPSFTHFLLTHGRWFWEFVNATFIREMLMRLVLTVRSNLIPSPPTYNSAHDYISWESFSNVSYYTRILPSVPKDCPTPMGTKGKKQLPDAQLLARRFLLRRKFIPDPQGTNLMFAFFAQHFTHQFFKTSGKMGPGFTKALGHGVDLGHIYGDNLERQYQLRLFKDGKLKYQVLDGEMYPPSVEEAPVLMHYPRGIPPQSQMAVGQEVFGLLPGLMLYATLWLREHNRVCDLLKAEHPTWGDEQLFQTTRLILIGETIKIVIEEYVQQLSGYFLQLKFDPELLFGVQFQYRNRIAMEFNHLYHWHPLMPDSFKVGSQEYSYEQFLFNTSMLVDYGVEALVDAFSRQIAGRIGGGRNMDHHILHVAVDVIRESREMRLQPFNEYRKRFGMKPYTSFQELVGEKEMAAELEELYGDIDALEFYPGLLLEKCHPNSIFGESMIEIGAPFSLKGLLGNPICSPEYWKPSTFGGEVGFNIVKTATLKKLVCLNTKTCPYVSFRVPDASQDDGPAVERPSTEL", "assay": "Inhibition of prostaglandin biosynthesis (PGE2 by EIA), recombinant human PGHS-1 enzyme assay", "type": "biochemical", "settings": "60 min preincubation, 10 μM arachidonic acid", "method": "(§1) Inhibition of prostaglandin biosynthesis was evaluated in recombinant human PGHS-1 and PGHS-2 enzyme assays. Representative compounds dissolved in DMSO (3.3% v/v) were preincubated with microsomes from recombinant human PGHS-1 or PGHS-2 expressed in the baculovirus/Sf9 cell system (Gierse, J. K., Hauser, S. D., Creely, D. P., Koboldt, C., Rangwala, S., H., Isakson, P. C., and Seibert, K. Expression and selective inhibition of the constituitive and inducible forms of cyclooxygenase Biochem J. 1995, 305: 479.), together with the cofactors phenol (2 mM) and hematin (1 μM) for 60 minutes prior to the addition of 10 μM arachidonic acid. The reaction was allowed to run for 2.5 minutes at room temperature prior to quenching with HCl and neutralization with NaOH. PGE2 production in the presence and absence of the drug was determined by EIA analysis. The EIA was conducted in 96 well microtiter plates (Nunc Roskilde, Denmark) and optical density measured using a microplate reader (Vmax, Molecular Devices Corp., Menlo Park, Calif.). EIA reagents for prostaglandin determination were purchased from Perseptive Diagnostics, Cambridge, Mass. PGE2 levels were measured against standards prepared in the same milieu. The immunoassays were conducted as recommended by the manufacturer."}, "human recombinant PGHS-2": {"molecular_target": "T2, human recombinant PGHS-2 (Homo sapiens, UniProt P35354)", "T2 construct": "made in house; host or cells: baculovirus/Sf9 insect cells (microsomes)", "T2 sequence (P35354 18-604)": "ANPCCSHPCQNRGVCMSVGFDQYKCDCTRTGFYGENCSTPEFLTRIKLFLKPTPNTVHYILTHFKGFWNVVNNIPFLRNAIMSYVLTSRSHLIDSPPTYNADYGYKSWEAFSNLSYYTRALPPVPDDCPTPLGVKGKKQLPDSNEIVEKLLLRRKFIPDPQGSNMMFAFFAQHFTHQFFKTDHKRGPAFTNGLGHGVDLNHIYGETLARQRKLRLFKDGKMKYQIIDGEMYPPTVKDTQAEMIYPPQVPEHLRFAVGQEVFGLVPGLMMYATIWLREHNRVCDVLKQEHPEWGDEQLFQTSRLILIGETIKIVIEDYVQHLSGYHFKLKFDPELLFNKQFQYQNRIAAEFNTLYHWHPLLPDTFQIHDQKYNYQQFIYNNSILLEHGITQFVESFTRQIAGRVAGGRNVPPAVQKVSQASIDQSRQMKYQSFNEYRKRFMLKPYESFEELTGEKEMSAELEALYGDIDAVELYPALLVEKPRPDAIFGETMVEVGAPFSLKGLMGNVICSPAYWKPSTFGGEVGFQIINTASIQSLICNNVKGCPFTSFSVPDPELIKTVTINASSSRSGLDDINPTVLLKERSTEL", "assay": "Inhibition of prostaglandin biosynthesis (PGE2 by EIA), recombinant human PGHS-2 enzyme assay", "type": "biochemical", "settings": "60 min preincubation, 10 μM arachidonic acid", "method": "as §1"}},
  "note": "pIC50: −log10 of the molar value.",
  "data": [
    {"smiles": "COc1ccc2cc([C@H](C)C(=O)O)ccc2c1", "note": "[naproxen]", "values": [
      {"measurement": "inhibition of PGHS-2", "setting": "PGHS-2", "value": "inhibit both isozymes"},
      {"measurement": "inhibition of PGHS-1", "setting": "PGHS-1", "value": "inhibit both isozymes"}
    ]},
    {"smiles": "Cc1ccc(Cl)c(Nc2ccccc2C(=O)O)c1Cl", "note": "[Meclofenamic acid]", "values": [
      {"measurement": "inhibition of PGHS-2", "setting": "PGHS-2", "value": "inhibit both PGHS-1 and PGHS-2"},
      {"measurement": "inhibition of PGHS-1", "setting": "PGHS-1", "value": "inhibit both PGHS-1 and PGHS-2"}
    ]},
    {"smiles": "CC(C)Cc1ccc(C(C)C(=O)O)cc1", "note": "(centres unmarked) [ibuprofen]", "values": [
      {"measurement": "inhibition of PGHS-2", "setting": "PGHS-2", "value": "inhibit both isozymes"},
      {"measurement": "inhibition of PGHS-1", "setting": "PGHS-1", "value": "inhibit both isozymes"}
    ]},
    {"smiles": "Cc1ccc(Cl)c(Nc2ccccc2C=NOCC(=O)O)c1Cl", "note": "[Example 1, 2-[(2,6-dichloro-3-methylphenyl)amino]benzaldehyde-O-carboxymethyl oxime]", "values": [
      {"measurement": "pIC50", "setting": "human recombinant PGHS-1", "value": 6.07},
      {"measurement": "pIC50", "setting": "human recombinant PGHS-2", "value": 7.66}
    ]}
  ]
}
